Results: US11406622B2, “Glaucocalyxin a derivative, pharmaceutically acceptable salt thereof, or pharmaceutical composition thereof and uses thereof in preparation of drugs for treating psoriasis” (SUZHOU PHARMAVAN CO., LTD., priority 2017, dated 2022)
“And” between values parts separate entries of the source, which are not always exact repeats. Identical values can stand only once. Like-named read-outs stand apart in the source and are kept apart here.

Columns and labels:
mouse spleen lymphocytes = test: ConA-induced proliferation of mouse spleen lymphocytes, MTT (Example 8); type: cell-based; conditions: 48 h, 5 μg/mL ConA
Method: In this example, the glaucocalyxin A derivatives and pharmaceutically acceptable salts thereof were detected for the effect thereof on ConA-induced proliferation of mouse spleen lymphocytes.
2×10^7/mL cell suspension was prepared and a 5 μg/μL ConA stock solution was added thereto at a final concentration of 5 μg/mL. The resulting mixture was inoculated into a 96-well culture plate at 0.1 mL per well. Then 0.1 mL of test compound at different concentrations was added to each well. Triplicate or quadruplicate wells were set up for each group, and a vehicle control group (without compound), a stimulant control group (with ConA, without compound, and without vehicle), a cell control group (without ConA, without compound, and without vehicle), and a blank medium control group (without cells, a well for null adjustment) were also set up, and cultured at 37° C., 5% CO2 for 48 h. MTT solution at 5 mg/mL was added at 20 μl per well, and cultured for an additional 4 hours. The culture plate was taken out and centrifuged at 1000 rpm for 10 min. The supernatant of each well was aspirated, and 100 μL of SDS cell lysis solution was added to each well, and cultured overnight. On the next day, the absorbance at 550 nm (OD550nm) was measured on an enzyme-linked immunoassay analyzer. The results were expressed as the mean OD550nm value of the triplicates or quadruplicates±standard deviation (x±sd). SPSS software version 17.0 was used for statistical analysis of the mean values, that is, the vehicle group was compared with the stimulant group, and the test group of each compound concentration was compared with the corresponding vehicle control group. The cell survival rate of each group was calculated according to the mean value for the compound treatment group and the mean value for the vehicle control group, that is, the cell survival rate (%)=the mean value for the compound treatment group/the mean value for the vehicle control group×100%. A linear regression equation was obtained by plotting the cell survival rate of each group against the concentration of the test compound, statistical test of the correlation coefficient was conducted, and then the IC50 value was determined.

BALB/c mice = test: Acute toxicity in BALB/c mice, single tail-vein injection (Example 9); type: in vivo, mouse; conditions: single intravenous injection
Description: In this example, Compound 23 and Compound 24 were detected for their acute toxicities, and the detection method was as follows.
Experimental procedure: 40 BALB/c mice, half male and half female, were randomly divided into groups after weight measurement. The weight of an individual should be within the range of the average body weight±20%. Animals should be allowed to acclimatize to the environment for at least 5 days before the test, and healthy (if female, it must be un-pregnant) mice were selected as test animals. The main inspections during the acclimatization period included: whether it met the quality indicators required at the time of ordering; general state check; and whether the weight reached the weight range required by the test. Unqualified abnormal animals were not included in this test. A single tail-vein injection was administrated to the mice at a low, medium, or high dose, which was 5 mg/kg, 10 mg/kg, or 40 mg/kg respectively according to a blank preparation pre-test. An equal volume of vehicle was intravenously injected to establish a control group.
Mice were observed once respectively at 0 to 2 hours and 4 to 6 hours after each administration. If toxic symptoms occurred, the number of observations could be increased. (2) Gross anatomy observation: All the surviving mice in each group were dissected and observed on the 8th day of the experiment. The abnormal organs and tissues found in the observation of administration sites and in the gross anatomy observation that might be related to the test samples were photographed and recorded. (3) Disposal of dying animals: The state of the mouse and the observation time were recorded, and the body weight was measured. (4) Disposal of dead animals: The time of death or the time when the death was found was recorded, the body weight was measured, and then the dissection was quickly performed for gross observation to speculate the cause of death.

HaCaT keratinocytes = test: Time- and dose-dependent inhibition of proliferation of human keratinocytes, CCK-8 (Example 6); type: cell-based
Method: In this example, the glaucocalyxin A derivatives of the present application and pharmaceutically acceptable salts thereof were examined for the relationship between the inhibitory rate thereof on the proliferation of human keratinocytes and its concentration. Compound 23 as shown in Table 1 was used as an exemplary compound to be examined by using the following procedure.
A cell suspension was prepared and inoculated into three 96-well plates at 8000 cells in a volume of 150 μl per well, which were then cultured overnight in an incubator at 37° C., 5% CO2. On the next day, 50 μl of test compound solution at different concentrations was added to each well. Triplicate wells were set up for each concentration. A vehicle control group (without compound), a cell control group (without compound and without vehicle), and a blank medium control group (without cells, a well for null adjustment) were also set up, and cultured for additional 24, 48, and 72 hours. CCK-8 staining working solution was added at 110 μL per well, and cultured for additional 1-4 h. At the end of the culture, the absorbances were measured at 450 nm (OD450 nm) on a Bio-Tek enzyme-linked immunosorbent assay. The results were expressed as the mean OD450 nm value of the triplicates±standard deviation (x±sd). Prism Graph was used for plotting and analysis. The cell inhibitory rate of each group was calculated according to the mean value of the treatment group with each compound at each concentration and the mean value of the vehicle control group, that is, the cell inhibitory rate (%)=[1−(the mean value of the treatment group−the blank control group)/(the mean value of the vehicle control group−the blank control group)]×100%. A fitting curve was obtained by plotting the cell inhibitory rate of each group against the logarithmic concentration (Log C) of the test compound, and then the IC50 value was determined.

**Q.** How did the “OD550nm value (x ± sd)” value (mouse spleen lymphocytes; 0.78125 μg/mL) turn out when `Br.C=C1C(=O)C23C(O)CC4C(C)(C)c5nc(N(C)C)sc5CC4(C)C2CCC1C3O` (centres unmarked) [Compound 23] was run?
**A.** The value was 1.14.

**Q.** What about the “Survival rate (%)” value (mouse spleen lymphocytes; 0.78125 μg/mL) of the same compound?
**A.** Its value is 98%.

**Q.** And the “OD550nm value (x ± sd)” value (mouse spleen lymphocytes; 1.5625 μg/mL)?
**A.** Its value is 1.18.

**Q.** And the “Survival rate (%)” value (mouse spleen lymphocytes; 1.5625 μg/mL)?
**A.** The value was 101%.

**Q.** And the “OD550nm value (x ± sd)” value (mouse spleen lymphocytes; 3.125 μg/mL)?
**A.** The value was 0.52.

**Q.** And the “Survival rate (%)” value (mouse spleen lymphocytes; 3.125 μg/mL)?
**A.** Its value is 45%.

**Q.** What about the “OD550nm value (x ± sd)” value (mouse spleen lymphocytes; 6.25 μg/mL) of the same compound?
**A.** The value was 0.29.

**Q.** And the “Survival rate (%)” value (mouse spleen lymphocytes; 6.25 μg/mL)?
**A.** The value was 25%.

**Q.** And the “OD550nm value (x ± sd)” value (mouse spleen lymphocytes; 12.5 μg/mL)?
**A.** Its value is 0.07.

**Q.** What about the “Survival rate (%)” value (mouse spleen lymphocytes; 12.5 μg/mL) of the same compound?
**A.** The value was 6%.

**Q.** What about the “OD550nm value (x ± sd)” value (mouse spleen lymphocytes; 25 μg/mL) of the same compound?
**A.** The value was 0.02.

**Q.** And the “Survival rate (%)” value (mouse spleen lymphocytes; 25 μg/mL)?
**A.** Its value is 2%.

**Q.** And the “OD550nm value (x ± sd)” value (mouse spleen lymphocytes; 50 μg/mL)?
**A.** The value was 0.02.

**Q.** What about the “Survival rate (%)” value (mouse spleen lymphocytes; 50 μg/mL) of the same compound?
**A.** The value was 2%.

**Q.** What about the “OD550nm value (x ± sd)” value (mouse spleen lymphocytes; 100 μg/mL) of the same compound?
**A.** The value was 0.02.

**Q.** What about the “Survival rate (%)” value (mouse spleen lymphocytes; 100 μg/mL) of the same compound?
**A.** Its value is 1%.

**Q.** And the IC50 (mouse spleen lymphocytes; linear regression)?
**A.** The IC50 was ~9410 nM and 9410 nM.

**Q.** What about the “IC50 (μg/mL)” value (mouse spleen lymphocytes; linear regression) of the same compound?
**A.** Its value is “IC50 = 4.00 μg/mL”.

**Q.** What about the “effect on ConA-induced proliferation of mouse spleen lymphocytes (in words)” value (mouse spleen lymphocytes; range of concentrations tested) of the same compound?
**A.** The value was “significant effect”.

**Q.** And the comparative safety (BALB/c mice)?
**A.** The comparative safety was “safer than Compound 24”.

**Q.** What about the toxic side effects (BALB/c mice; 5 mg/kg) of the same compound?
**A.** The toxic side effects was “No obvious toxic side effects”.

**Q.** And the “weight loss and decreased diet” value (BALB/c mice; 5 mg/kg)?
**A.** Its value is “no significant weight loss and decreased diet”.

**Q.** What about the toxic side effects (BALB/c mice; 10 mg/kg) of the same compound?
**A.** The toxic side effects was “No obvious toxic side effects”.

**Q.** And the “weight loss and decreased diet” value (BALB/c mice; 10 mg/kg)?
**A.** The value was “no significant weight loss and decreased diet”.

**Q.** And the toxic side effects (BALB/c mice; 40 mg/kg)?
**A.** The toxic side effects was “No obvious toxic side effects”.

**Q.** What about the “weight loss and decreased diet” value (BALB/c mice; 40 mg/kg) of the same compound?
**A.** Its value is “no significant weight loss and decreased diet”.

**Q.** What about the IC50 (HaCaT keratinocytes; 24 h, read-out: IC50 at 24 h) of the same compound?
**A.** The IC50 was 1940 nM.

**Q.** And the IC50 (HaCaT keratinocytes; 48 h, read-out: IC50 at 48 h)?
**A.** The IC50 was 933 nM.

**Q.** What about the IC50 (HaCaT keratinocytes; 72 h, read-out: IC50 at 72 h) of the same compound?
**A.** Its IC50 is 787 nM.
